# Laboratory results reported in US7226746B1, “Method for screening for anti-amyloidogenic properties and method for treatment of neurodegenerative disease” (The Regents of the University of California, priority 1998, dated 2007).
# Columns and labels:
# NACP/α-synuclein [1] = target: T1, NACP/α-synuclein (Homo sapiens, UniProt P37840); assay: Iron-catalyzed oxidative reaction (metal ion plus hydrogen peroxide) aggregation of NACP/α-synuclein, immunoblotting; assay type: biochemical; set-up: which encodes full length NACP/α-synuclein 140; 6xHis (cleaved yes); made in house; host or cells: E. coli DH5α
# Method: (§1) Prior to experimentation, each of the recombinant proteins need to be desalted by way of passage through PD 10 columns (Pharmacia, Piscataway, N.J.) in water and then adjusted to a final concentration of 5 μM. NACP/α-synuclein protein (1 μl) is incubated in a total volume of 20 μl of buffer containing 20 mM Tris-HCl, pH 7.4. To perform the immuno-blotting analysis, each sample is resolved by SDS-PAGE (15%) and blotted onto nitrocellulose membrane (Schleicher & Schuell, Keene, N.H.). The blotted membrane is blocked with Tris-Buffered saline (TBS; 20 mM Tris-HCl, pH 7.5 and 150 mM NaCl) containing 3% BSA, followed by incubation with anti-C-terminal rabbit polyclonal antibody (1:1000) in TBS containing 1% BSA. The blocked membrane is then incubated with peroxidase-labeled anti-rabbit IgG (Amersham) (1:1000) and visualized using the ECL immuno-blotting system (Amersham, Cleveland, Ohio), the use of which is well known to those in the art.
# It was hypothesized that aggregation of NACP/α-synuclein might be linked to the iron-catalyzed oxidative reactions, represented in FIG. 2a, illustrating the hypothesis for the association of NACP/α-synuclein aggregation with iron-catalyzed oxidative reaction (Harber-Weiss reaction). In order to determine if an iron-catalyzed oxidative reaction promotes aggregation of NACP/α-synuclein, the human recombinant form of this molecule was incubated with ferrous ion (100 μM) and hydrogen peroxide. […] Ferrous ion was not included in lanes 8–10. The position of molecular weight markers (kD) are indicated on left). […] Other transition metals were also examined for their effect on NACP/α-synuclein aggregation.
# NACP/α-synuclein [2] = target: T1, NACP/α-synuclein; assay: Inhibition of high temperature aggregation by Congo red (NACP/α-synuclein); assay type: biochemical; set-up: which encodes full length NACP/α-synuclein 140; 6xHis (cleaved yes); made in house; host or cells: E. coli; conditions: 20 μM protein, pH 6.9, 65° C., 20 hours, micromolar concentrations of Congo red
# Method: (§2) In order to test the susceptibility of the newly constructed β-synuclein mutants to aggregation, an aggregation assay can be performed. To do this, 10–20 μM of each of the mutant proteins are incubated in a total volume of 20 μl with a final concentration of 100 mM sodium acetate, pH 6.9. Aggregation can be induced under a variety of conditions, for instance, low pH and high temperature. SDS-PAGE analysis/immunoblotting or Thioflavine-S staining provides means for evaluating the reacted samples, the methods of which are described above and well known to those in the art.
# (§3) Since previous studies have shown that the aggregation of amyloidogenic proteins were to some extent inhibited by Congo red, increasing concentrations of Congo red were added in the present aggregation system. […] As is shown in FIG. 5, the monomer bands were slightly but surely stabilized by treatment with micromolar concentrations of Congo red, which is consistent with other reported studies.
# β-synuclein δ2 = target: T2, β-synuclein δ2 (Homo sapiens, UniProt Q16143, A63V/F71V/H65N/INS70[…]/L66V/S64T/S72E); assay: Inhibition of high temperature aggregation by Congo red (β-synuclein δ2); assay type: biochemical; conditions: 20 μM protein, pH 6.9, 65° C., 20 hours, micromolar concentrations of Congo red
# T2 construct: 6xHis (cleaved yes); made in house; host or cells: E. coli
# Method: as §2, §3
# [3] = target: T3, human recombinant NACP/α-synuclein 140 (Homo sapiens, UniProt P37840); assay: Ferric ion-induced aggregation of NACP/α-synuclein 140, immunoblotting analysis; assay type: biochemical; conditions: 4 hour incubation, pH 7.4, 37° C.; 0-1 mM ferric ion, concentration dependent
# T3 construct: which encodes full length NACP/α-synuclein 140; 6xHis (cleaved yes); made in house; host or cells: E. coli DH5α
# Method: (§4) The cells are harvested and re-suspended in 50 mM Tris-HCl, pH 8.5, containing protease inhibitors. Following sonication and centrifugation of the re-suspension, the supernatant is applied to a Ni-NTA column and eluted with 20 mM Tris-HCl, pH 8.5, containing 100 mM KCl, 100 mM imidazole, […] v/v glycerol and 10 mM β-mercaptoethanol. The eluted fusion protein is dialyzed against 50 mM Tris-HCl, pH 8.5, cleaved with recombinant TEV protease and again applied to a Ni-NTA column. The recombinant NACP/α-synuclein is isolated in the flow through fractions, pooled and stored at −20° C. until use.
# as §1, with “The blocked membrane is then incubated with peroxidase-labeled anti-rabbit IgG (Amersham) (1:1000) and visualized using the ECL immuno-blotting system (Amersham, Cleveland, Ohio), the use of which is well known to those in the art.” left out
# [4] = Thioflavine-S staining of aggregates formed at pH 6.9, 65 C; assay type: physicochemical, human; conditions: pH 6.9, 65 C conditions
# Method: In order to determine whether the aggregates resulting from aggregation reactions of PROEX-1-β-synuclein 61 and PROEX-1-β-synuclein δ2 display amyloid-like characteristics, 10 μl aliquots of the protein preparations are obtained using the above-described procedures are pipetted onto glass slides and stained with Thioflavine-S. The results are visually analyzed using a confocal microscope, the method of which is well known to those in the art.
# [5] = Specificity of ferric ion-induced aggregation: recombinant synuclein proteins treated with ferric ion, immunoblot; assay type: physicochemical, human; conditions: 100 μM ferric ion
# Method: as §4
# as §1, with “The blocked membrane is then incubated with peroxidase-labeled anti-rabbit IgG (Amersham) (1:1000) and visualized using the ECL immuno-blotting system (Amersham, Cleveland, Ohio), the use of which is well known to those in the art.” left out
# [6] = Thioflavine-S staining of ferric ion-induced in vitro aggregates; assay type: physicochemical, human
# Method: In order to determine if iron-induced NACP/α-synuclein aggregates display amyloid-like characteristics, Thioflavine-S staining is performed.
# In order to determine whether the ferric-ion induced in vitro aggregates of NACP/α-synuclein display amyloid-like characteristics, Thioflavine-S staining experiments were performed.
# [7] = Aggregation assay under high temperature conditions, SDS-PAGE analysis; assay type: physicochemical, human; conditions: 20 μM protein, 100 mM sodium acetate, pH 6.9, 65° C.
# Method: as §2
# Recombinant proteins were produced using a standard E. coli system and high purity products were generated using SDS-PAGE analysis, seen as FIG. 4.
# After 8 hours incubation, the bands corresponding to possible dimers became visible and, after 20 hours incubation, bands corresponding to dimers and higher smears in both the separating and stacking portions of the gels was observed.
compound,measurement,setting,value
OO [hydrogen peroxide],aggregation of NACP/α-synuclein with hydrogen peroxide in the presence of ferrous ion,"NACP/α-synuclein [1]; NACP/α-synuclein 1 μM, ferrous ion 100 μM, 1 nM-100 μM H2O2",dose-dependent aggregation
same,aggregation of NACP/α-synuclein with hydrogen peroxide alone,"NACP/α-synuclein [1]; no ferrous ion, 10-100 μM H2O2",no remarkable changes
Nc1c(/N=N/c2ccc(-c3ccc(/N=N/c4cc(S(=O)(=O)O)c5ccccc5c4N)cc3)cc2)cc(S(=O)(=O)O)c2ccccc12 [Congo red],inhibition of aggregation of NACP/α-synuclein,NACP/α-synuclein [2],partly inhibited aggregation
same,inhibition of aggregation of β-synuclein δ2,β-synuclein δ2,partly inhibited aggregation
manganese,aggregation of NACP/α-synuclein by other transition metals in the presence of hydrogen peroxide,NACP/α-synuclein [1]; in the presence of hydrogen peroxide,failed to induce the aggregation
[Fe+3] [ferric ion],aggregation of NACP/α-synuclein 140 induced by the ion,[3],induced aggregation
β-synuclein: human recombinant NACP/α-synuclein-related protein with a partially incomplete NAC domain; non-amyloidogenic,Thioflavine-S staining of the protein,[4],negative result
same,aggregation of the protein on treatment with ferric ion,[5],not aggregated
same,Thioflavine-S reactivity of ferric ion-induced aggregates,[6],not
same,aggregation of the protein under high temperature conditions (SDS-PAGE),[7],showed no aggregation
